Reference: the CheMixHub viscosity set

Test: xn = mol fraction of the nth substance listed
Details: 100 kPa

CCCCCCCCCCC + CCCCCCCCCCO
viscosity [mPa·s]
Details | x1 = 0.1003 | x1 = 0.2003 | x1 = 0.3005 | x1 = 0.3972 | x1 = 0.4989 | x1 = 0.5997 | x1 = 0.7007 | x1 = 0.8 | x1 = 0.8987
293.15 K | 10.47 | 7.7 | 5.667 | 4.374 | 3.193 | 2.542 | 1.992 | 1.626 | 1.378
298.15 K | 8.685 | 6.471 | 4.833 | 3.775 | 2.8 | 2.254 | 1.793 | 1.486 | 1.256
303.15 K | 7.267 | 5.479 | 4.152 | 3.283 | 2.477 | 2.015 | 1.628 | 1.368 | 1.154
308.15 K | 6.125 | 4.678 | 3.591 | 2.873 | 2.202 | 1.814 | 1.508 | 1.252 | 1.06
313.15 K | 5.2 | 4.018 | 3.127 | 2.533 | 1.97 | 1.644 | 1.376 | 1.149 | 0.979
318.15 K | 4.447 | 3.475 | 2.741 | 2.26 | 1.773 | 1.518 | 1.256 | 1.058 | 0.908
323.15 K | 3.825 | 3.02 | 2.418 | 2.006 | 1.655 | 1.382 | 1.152 | 0.975 | 0.846

CCCCCCCCCCC + CCCCCCCCCO
viscosity [mPa·s]
Details | x1 = 0.1008 | x1 = 0.2004 | x1 = 0.2999 | x1 = 0.3992 | x1 = 0.5014 | x1 = 0.5978 | x1 = 0.6993 | x1 = 0.7958 | x1 = 0.9
293.15 K | 8.362 | 6.114 | 4.688 | 3.479 | 2.709 | 2.208 | 1.803 | 1.531 | 1.326
298.15 K | 6.989 | 5.181 | 4.013 | 3.028 | 2.391 | 1.972 | 1.634 | 1.419 | 1.216
303.15 K | 5.885 | 4.422 | 3.464 | 2.653 | 2.124 | 1.777 | 1.529 | 1.296 | 1.117
308.15 K | 4.99 | 3.802 | 3.012 | 2.342 | 1.904 | 1.613 | 1.391 | 1.185 | 1.03
313.15 K | 4.264 | 3.291 | 2.636 | 2.084 | 1.718 | 1.5 | 1.271 | 1.09 | 0.956
318.15 K | 3.665 | 2.868 | 2.326 | 1.867 | 1.561 | 1.367 | 1.164 | 1.004 | 0.889
323.15 K | 3.17 | 2.503 | 2.066 | 1.685 | 1.461 | 1.249 | 1.07 | 0.928 | 0.826

CCCCCCCCCCC + CCCCCCCCO
viscosity [mPa·s]
Details | x1 = 0.0994 | x1 = 0.2003 | x1 = 0.2994 | x1 = 0.3986 | x1 = 0.498 | x1 = 0.5983 | x1 = 0.6948 | x1 = 0.7982 | x1 = 0.899
293.15 K | 6.831 | 5.141 | 3.839 | 3.004 | 2.374 | 1.965 | 1.669 | 1.463 | 1.271
298.15 K | 5.749 | 4.369 | 3.31 | 2.622 | 2.109 | 1.77 | 1.542 | 1.349 | 1.164
303.15 K | 4.874 | 3.746 | 2.878 | 2.322 | 1.929 | 1.622 | 1.402 | 1.233 | 1.071
308.15 K | 4.161 | 3.23 | 2.519 | 2.063 | 1.725 | 1.473 | 1.281 | 1.132 | 0.987
313.15 K | 3.577 | 2.805 | 2.223 | 1.847 | 1.559 | 1.341 | 1.175 | 1.043 | 0.915
318.15 K | 3.091 | 2.455 | 1.978 | 1.67 | 1.413 | 1.224 | 1.079 | 0.963 | 0.848
323.15 K | 2.694 | 2.167 | 1.774 | 1.507 | 1.286 | 1.123 | 0.996 | 0.892 | 0.792

CCCCCCCCCCC + CCCCCCCO
viscosity [mPa·s]
Details | x1 = 0.0999 | x1 = 0.1998 | x1 = 0.3007 | x1 = 0.399 | x1 = 0.5004 | x1 = 0.5988 | x1 = 0.7002 | x1 = 0.8004 | x1 = 0.8983
293.15 K | 5.317 | 4.102 | 3.124 | 2.518 | 2.05 | 1.798 | 1.547 | 1.383 | 1.239
298.15 K | 4.517 | 3.516 | 2.713 | 2.219 | 1.831 | 1.626 | 1.407 | 1.263 | 1.137
303.15 K | 3.86 | 3.037 | 2.378 | 1.975 | 1.654 | 1.47 | 1.284 | 1.158 | 1.048
308.15 K | 3.32 | 2.641 | 2.202 | 1.816 | 1.537 | 1.342 | 1.176 | 1.063 | 0.968
313.15 K | 2.876 | 2.315 | 1.956 | 1.633 | 1.369 | 1.229 | 1.078 | 0.981 | 0.896
318.15 K | 2.509 | 2.089 | 1.751 | 1.477 | 1.247 | 1.128 | 0.994 | 0.908 | 0.833
323.15 K | 2.251 | 1.86 | 1.575 | 1.34 | 1.14 | 1.04 | 0.918 | 0.843 | 0.777

CCOC(=O)CCC(=O)OCC + CCCCCCO
293.15 K
Details | viscosity [mPa·s]
x1 = 0.4999 | 2.495
x1 = 0.7999 | 2.495
